Data on one compound can be found in patent US20230270676A1 (priority 2020, published 2023).

Format in all cases: cell-based, human
The test system of experiment [1] is SW-480 cells. Put plainly: Transwell migration experiment (SW-480). The settings on record: drug 15 μg/mL, 36 h, untreated group 100.0±11.7. How it is done:
Each of the HCT116 and SW-480 cells in a logarithmic growth stage was taken and prepared into a suspension with a serum-free cell culture medium, counted, and diluted in folds, and a serum-free cell culture medium with the drug of 15 μg/mL was added. 200 μL of the suspension was inoculated into an upper chamber of a Transwell cell at a density of 1×10^5 cells/well, 500 μL of a 10% FBS-containing cell culture medium was added to a lower chamber of the Transwell cell, and the Transwell cell was incubated in a 5% CO2/37° C. incubator with saturated humidity for 36 h. The number of cells passing through the cell was counted, and cells in the upper chamber were gently wiped off with a cotton swab. Cells in the lower chamber were fixed with formaldehyde for 15 min, then stained with a 1% gentian violet staining solution for 30 min, and observed and counted under a microscope.

Experiment [2] deals with HCT116 cells. Put plainly: Plate cloning experiment for proliferation of tumor cells (HCT116). The settings on record: untreated group 62.0±7.6. The method, then: (§1) Each of the HCT116 and SW-480 cells in a logarithmic growth phase was prepared into a suspension with a 10% FBS-containing cell culture medium, blown into single cells, counted, inoculated into a six-well plate at a density of 1×10^3 cells/well, and cultivated in a 5% CO2/37° C. incubator with saturated humidity until the cells were adherent to the wall. […] After the administration, the cells were often observed, and when clone spheres visible to the naked eye appeared, the cell cultivation was stopped, the supernatant was discarded, the cells were washed twice with PBS, and 1 mL of 4% paraformaldehyde (PFA) was added to conduct fixation for 20 min. The fixation solution was removed, the cells were washed 3 times with PBS, a 1% gentian violet staining solution was added to conduct staining for 30 min, and then the cells were slowly rinsed with running water to remove the staining solution, dried in an oven at 37° C., and photographed and counted. Colony-forming efficiency (CFE)=(number of cell clones/number of inoculated cells)×100%. […] The colony number was calculated for each group.

The test system of experiment [3] is SW-480 cells. Description: Plate cloning experiment for proliferation of tumor cells (SW-480). The following applies: untreated group 36.1±7.5. How it is done:
as §1

Experiment [4] deals with HCT116 cells. Put plainly: Apoptosis of tumor cells by flow cytometry (Annexin V-FITC/PI). The following applies: 48 h after administration, untreated group 16%. The method, then:
48 h after administration, a supernatant in each group was removed, the cells were washed with 1×PBS 3 times and then digested with EDTA-free trypsin for 2 min, and a 10% FBS-containing cell culture medium was added to stop the digestion. The resulting suspension was collected in a centrifuge tube and centrifuged at 1,000 rpm for 3 min, and resulting cells were washed twice with 1×PBS (4° C.) and resuspended in 400 μL of an Annexin V binding solution. 5 μL of an Annexin V-FITC staining solution was added, and the cells were incubated in the dark for 15 min. 10 μL of a PI staining solution was added, and the cells were incubated in the dark for 5 min. The cells were immediately tested by FC.

Regarding `CO[C@H]1C[C@@H]2CC[C@@H](C)[C@@](O)(O2)C(=O)C(=O)N2CCCC[C@H]2C(=O)O[C@H]([C@H](C)C[C@@H]2CC[C@@H](O)[C@H](OC)C2)CC(=O)[C@H](C)/C=C(\C)[C@@H](O)[C@@H](OC)C(=O)[C@H](C)C[C@H](C)/C=C/C=C/C=C/1C` [free RAPA, rapamycin], the “Percentage of cells passing through the cell” value in the experiment on SW-480 cells [1] was determined as 57.4±10.6%. Moreover, the Colony number amounted to 49.2±5.2 in the experiment with HCT116 cells [2] and 33.2±3.7 in the experiment on SW-480 cells [3]. Also, the Apoptosis rate in the experiment with HCT116 cells [4] is listed as 21%.
